From US12595252B2, “Inhibitors of SARM1” (DISARM THERAPEUTICS, INC., priority 2019, dated 2026)

Biological target: T1, SARM1 (Homo sapiens, UniProt Q6SZW1)
T1 construct: made in house; host or cells: NRK1-HEK293T cells, transiently transfected; clarified lysate used unpurified
T1 sequence (Q6SZW1 with tags, fused parts or gaps): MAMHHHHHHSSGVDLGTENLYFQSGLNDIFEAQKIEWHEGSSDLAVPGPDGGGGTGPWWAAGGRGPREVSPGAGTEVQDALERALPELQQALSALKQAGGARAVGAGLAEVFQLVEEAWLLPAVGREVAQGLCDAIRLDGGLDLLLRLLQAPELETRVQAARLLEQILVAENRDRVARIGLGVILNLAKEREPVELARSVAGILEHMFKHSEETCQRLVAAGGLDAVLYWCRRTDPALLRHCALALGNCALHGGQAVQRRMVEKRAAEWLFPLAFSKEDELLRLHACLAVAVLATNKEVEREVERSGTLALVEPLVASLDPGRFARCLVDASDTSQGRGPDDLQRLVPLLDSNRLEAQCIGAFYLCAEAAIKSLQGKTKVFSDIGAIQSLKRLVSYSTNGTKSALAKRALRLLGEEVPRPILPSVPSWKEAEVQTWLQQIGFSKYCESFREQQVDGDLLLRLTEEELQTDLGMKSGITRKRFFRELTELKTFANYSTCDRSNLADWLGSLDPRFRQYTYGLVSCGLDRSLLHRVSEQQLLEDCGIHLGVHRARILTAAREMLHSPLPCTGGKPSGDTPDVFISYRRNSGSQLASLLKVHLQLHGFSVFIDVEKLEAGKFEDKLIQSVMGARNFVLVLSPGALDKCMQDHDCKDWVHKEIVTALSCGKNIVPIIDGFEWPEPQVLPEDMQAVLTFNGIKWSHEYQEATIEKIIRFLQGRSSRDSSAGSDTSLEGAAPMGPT
Experiment: ARM-SAM-TIR SARM1 IC50 assay (NADase activity, NAD+ cleavage)
Format: biochemical
Conditions: not given
Description: This Example describes an assay of ARM-SAM-TIR NADase activity and use of this assay to measure the efficacy of compounds of Formula I to block SARM1 mediated NAD+ cleavage. This assay is optimized in such a way as to characterize the efficacy of the compounds in Formula I to inhibit SARM1 activity and to calculate an IC50 value for each compound. This assay makes use of full length SARM1, which encompasses the ARM, SAM and TIR domains.
NRK1-HEK293T cells were seeded onto 150 cm^2 plates at 20×10^6 cells per plate. The next day, the cells were transfected with 15 μg ARM-SAM-TIR expression plasmid, SEQ ID NO: 1.
The cultures were supplemented with 1 mM NR at time of transfection to minimize toxicity from ARM-SAM-TIR overexpression. Forty-eight hours after transfection, cells were harvested, pelleted by centrifugation at 1,000 rpm (Sorvall ST 16R centrifuge, Thermo Fisher), and washed once with cold PBS (0.01 M phosphate buffered saline NaCl 0.138 M; KCl 0.0027 M; pH 7.4). The cells were resuspended in PBS with protease inhibitors (cOmplete™ protease inhibitor cocktail, Roche product #11873580001) and cell lysates were prepared by sonication (Branson Sonifer 450, output=3, 20 episodes of stroke). The lysates were centrifuged (12,000×g for 10 min at 4° C.) to remove cell debris and the supernatants (containing ARM-SAM-TIR protein) were stored at −80° C. for later use in the in vitro ARM-SAM-TIR NADase assay (see below). Protein concentration was determined by the Bicinchoninic (BCA) method and used to normalize lysate concentrations.
The enzymatic assay was performed in a 384-well polypropylene plate in Dulbecco's PBS buffer in a final assay volume of 20 μL. ARM-SAM-TIR lysate with a final concentration of 5 μg/mL was pre-incubated with the respective compound at 1% DMSO final assay concentration over 2 h at room temperature. The reaction was initiated by addition of 5 μM final assay concentration of NAD+ as substrate. After a 2 hr room temperature incubation, the reaction was terminated with 40 μL of stop solution of 7.5% trichloroacetic acid in acetonitrile. The NAD+ and ADPR concentrations were analyzed by a RapidFire High Throughput Mass Spectrometry System (Agilent Technologies, Santa Clara, Calif.) using an API4000 triple quadrupole mass spectrometer (AB Sciex Framingham, Mass.).

| Compound | IC50 [µM] |
| --- | --- |
| COc1cncc(NCc2ccc(C3=CCN(C)CC3)nc2)n1 [Example 124] | 5 to 15 |

Same assay, conditions: ARM-SAM-TIR lysate 5 μg/mL from NRK1-HEK293T cells; 2 h pre-incubation; 5 μM NAD+; 2 hr room temperature; NAD+ and ADPR by RapidFire MS; read-out: SARM1 IC50

| IC50 [µM] | Compound |
| --- | --- |
| > 30 | Cn1cc(CNc2cncc(OCC(F)(F)F)n2)cn1 [Example 117] |
| < 5 | COc1cncc(NCc2ccc(N)nc2)n1 [Example 118] |
| < 5 | COc1cncc(NCc2cnn(C3CCN(C)CC3)c2)n1 [Example 119] |
| < 5 | CCN1CCC(n2cc(CNc3cncc(OC)n3)cn2)CC1 [Example 120] |
| 5 to 15 | COc1cncc(NCc2cnc(C)o2)n1 [Example 121] |
| 5 to 15 | CCN1CCN(c2ncc(CNc3cncc(OC)n3)cn2)C(C)C1 (stereo not drawn) [Example 122] |
| 5 to 15 | COc1cncc(NCc2cccc(N3CCN(C(=O)OC(C)(C)C)CC3)c2)n1 [Example 123] |
| 5 to 15 | COc1cncc(NCc2ccc(C3CCN(C)CC3)nc2)n1 [Example 125] |
| 5 to 15 | COc1cncc(NCc2cccc(N3CCNCC3)c2)n1 [Example 126] |
| 15 to 30 | COc1cncc(NCc2cccc(S(C)(=O)=O)c2)n1 [Example 127] |
| 5 to 15 | COc1cncc(NCc2cccc(C#N)c2)n1 [Example 128] |
| 5 to 15 | COc1cncc(NCc2ccc(C#N)cc2)n1 [Example 129] |
| 5 to 15 | COc1cncc(NCc2ccc(N3CCC(F)(F)CC3)nc2)n1 [Example 130] |
| < 5 | COc1cncc(NCc2ccc(N3CCN4CCCC4C3)nc2)n1 (stereo not drawn) [Example 131] |
| 5 to 15 | COc1cncc(NCc2ccc(N3CCN(C(=O)OC(C)(C)C)CC3)nc2)n1 [Example 132] |
| 5 to 15 | COc1cncc(NCc2ccc(NS(C)(=O)=O)nc2)n1 [Example 133] |
| 15 to 30 | COc1cncc(NCc2cnn(C3CCN(C(C)=O)CC3)c2)n1 [Example 134] |
| 15 to 30 | COc1cnnc(NCc2cn[nH]c2)c1 [Example 135] |
| 5 to 15 | COc1cc(NC(=O)c2cccnc2)cnn1 [Example 136] |
| > 30 | COc1cc(NC(=O)c2cnccn2)cnn1 [Example 137] |
| 15 to 30 | CCc1cncc(NCc2cccnc2)n1 [Example 138] |

| IC50 [µM] | Compound |
| --- | --- |
| 5 to 15 | CNC(=O)c1cncc(NCc2cccnc2)n1 [Example 139] |
| 15 to 30 | COc1cc(NCc2cccnc2)n[nH]c1=O [Example 140] |
| 5 to 15 | COc1cncc(NCc2ccc(-c3ccncc3)nc2)n1 [Example 141] |
| 5 to 15 | COc1cncc(NCc2ccc(-c3ccccc3)nc2)n1 [Example 142] |
| 5 to 15 | COc1cncc(NCc2ccc(OC(F)(F)F)cc2)n1 [Example 143] |
| 5 to 15 | COc1cncc(NCc2ccc(C(C)(C)O)cc2)n1 [Example 144] |
| > 30 | COc1cncc(NCc2cccnc2O)n1 [Example 145] |
| 5 to 15 | COc1cncc(NCc2ccc(-c3nnco3)cc2)n1 [Example 146] |
| 5 to 15 | COc1cncc(NCc2ccc(N3CCN(C(C)C)CC3)nc2)n1 [Example 147] |
| 5 to 15 | CCCCN1CCN(c2ccc(CNc3cncc(OC)n3)cn2)CC1 [Example 148] |
| 5 to 15 | CCNC(=O)n1cc(CNc2cncc(OC)n2)cn1 [Example 149] |
| 5 to 15 | COc1cncc(NCc2cnn(S(C)(=O)=O)c2)n1 [Example 150] |
| 5 to 15 | Cn1cc(CNc2cncc(NCCCCO)n2)cn1 [Example 151] |
| < 5 | CNc1cncc(OC)n1 [Example 152] |
| > 30 | COc1cc(NCc2cccnc2)cc(=O)[nH]1 [Example 153] |
| > 30 | N#Cc1cncc(NCc2cccnc2)n1 [Example 154] |
| 5 to 15 | CCN1CCN(c2cccc(CNc3cncc(OC)n3)c2)CC1 [Example 155] |
| 15 to 30 | COc1cncc(NCc2ccc(S(=O)(=O)N(C)C)cc2)n1 [Example 156] |
| 15 to 30 | COc1cncc(NCc2ccn(C)c(=O)c2)n1 [Example 157] |
| 15 to 30 | COc1cncc(NCc2ccc(-c3nn[nH]n3)cc2)n1 [Example 158] |
| 15 to 30 | COc1cncc(N)n1 [Example 159] |

| IC50 [µM] | Compound |
| --- | --- |
| 15 to 30 | COc1cncc(N)c1 [Example 160] |
| > 30 | CNc1cc(OC)cnn1 [Example 161] |
| > 30 | CNc1nccc(OC)n1 [Example 162] |
| 5 to 15 | CNc1cncc(OCc2ccccc2)n1 [Example 163] |
| > 30 | CNC(=O)c1cncc(NC)n1 [Example 164] |
| 15 to 30 | CNc1cncc(NCCCCO)n1 [Example 166] |
| 15 to 30 | CNc1cncc(NCCc2cnn(C)c2)n1 [Example 167] |
| > 30 | CNc1cncc(OCCCNC(=O)OC(C)(C)C)n1 [Example 168] |
| > 30 | CNc1cncc(OCCCCNC(=O)OC(C)(C)C)n1 [Example 169] |
| > 30 | CCCOc1cncc(NCc2cnn(C)c2)n1 [Example 170] |
| 5 to 15 | CNc1cncc(OC)c1 [Example 171] |
| > 30 | CNc1cncc(OCCCN)n1 [Example 172] |
| > 30 | CNc1cncc(OCCCCN)n1 [Example 173] |
| < 5 | CNc1cncc(OCCCCO)n1 [Example 174] |
| > 30 | COc1cc(NCc2ccc(S(N)(=O)=O)cc2)cnn1 [Example 175] |
| > 30 | COc1cc(NCc2cc[nH]c(=O)c2)cnn1 [Example 176] |
| > 30 | Cn1cc(CNc2cncc(OCCC3CCCO3)n2)cn1 (stereo not drawn) [Example 177] |
| > 30 | CCN1CCN(c2ccc(CNc3cnccn3)cn2)CC1 [Example 178] |
| > 30 | CCN1CCN(c2ccc(CNc3cnccn3)cc2)CC1 [Example 182] |
| > 30 | CCOc1cncc(NCc2cnccn2)n1 [Example 183] |
| > 30 | CCOc1cncc(NC(C)c2ccccn2)n1 (stereo not drawn) [Example 184] |

| IC50 [µM] | Compound |
| --- | --- |
| > 30 | CCOc1cncc(NCc2ccccn2)n1 [Example 185] |
| > 30 | Brc1cncc(NCc2cccnc2)n1 [Example 186] |
| > 30 | Clc1cncc(NCc2cccnc2)n1 [Example 187] |
| > 30 | Brc1cncc(OCc2cccnc2)n1 [Example 188] |
| > 30 | Clc1cncc(OCc2cccnc2)n1 [Example 189] |
| > 30 | CCOc1cncc(OCc2cccnc2)n1 [Example 190] |
| > 30 | CCOc1cncc(NC(=O)c2cccnc2)n1 [Example 191] |
| > 30 | CCOc1cncc(NC(=O)c2ccccc2)n1 [Example 192] |
| > 30 | CCOc1cncc(NC(C)=O)n1 [Example 193] |
| > 30 | CCOc1cncc(NS(C)(=O)=O)n1 [Example 195] |
| > 30 | COc1cncc(C(=O)NCc2ccccc2)n1 [Example 196] |
| > 30 | COc1cncc(C(=O)Nc2ccccc2)n1 [Example 197] |
| > 30 | c1ccc(COc2cncc(NCc3cccnc3)n2)cc1 [Example 198] |
| > 30 | c1cncc(CNc2cncc(OCC3CCCC3)n2)c1 [Example 199] |
| > 30 | CCCc1cncc(NCc2cccnc2)n1 [Example 200] |
| > 30 | Cc1ncc(Cl)nc1NCc1cccnc1 [Example 201] |
| > 30 | COc1cncc(N(C)Cc2cccnc2)n1 [Example 202] |
| > 30 | COc1cnc(NCc2cccnc2)cn1 [Example 203] |
| > 30 | COc1cnc(C)c(NCc2cccnc2)n1 [Example 204] |
| > 30 | COc1cncc(NCc2cn(C)nc2C)n1 [Example 206] |
